Results as given in US20070026431A1, “Modulation of MAPK-mediated phosphorylation and/or FBXW8-mediated ubiquitinylation of cyclin D1 in modulation of cellular proliferation” (priority 2005, published 2007).
Entries after “also recorded” stand apart in the source; their conditions may differ.

Legend:
Assay type in all cases: cell-based, human
[1] = tested on: cyclin D1 protein (Thr286 phosphorylation); assay: Western blot of total cyclin D1 and pThr286 in HCT 116 cells after U0126 or GSK3 inhibitor; conditions: cycling HCT 116; GSK3α/β inhibitor 24 hours
Experimental: (§1) FIG. 11 illustrates that ERK/MAPK is identified as the major kinase that is responsible for the stability of cyclin D1 protein. Panels A-F: Pulse-chase analysis of cyclin D1 protein in HCT 116 cells after exposure to the MEK inhibitor U0126 (A-C) or the GSK3 inhibitor BIO (D-F). Exponentially growing HCT 116 cells were treated with either DMSO or 10 μM of U0126 (A-C) for 30 minutes, or DMSO or 5 μM of BIO (D-F) for 24 hours. Panels A and D: Cells were pulse-labeled with ^35S-methionine for 1 hour. Subsequently these cells were chased with cold methionine for the indicated times, and then lysed respectively. Cyclin D1 was immunoprecipitated and then analyzed with SDS-PAGE. Autoradiography was performed. Levels of metabolically labeled-cyclin D1 were estimated by quantitative scanning using the Quantity One (Bio-Rad) software and blotted on the graph to determine the half-life of cyclin D1. Panels B and E: Western blot analysis. The membrane was blotted with a cyclin D1 Thr286 phosphorylation specific (pThr286), total cyclin D1, a phosphorylation specific ERK, and total ERK antibodies (B), or a pThr286, cyclin D1, a GSKα/β phosphorylation specific, and GSK3β antibodies (E). Panels C and F: Cell cycle distributions were shown. Panel G: Western blot analysis following transfection of various forms of HA-tagged cyclin D1 expression vectors in both NIH 3T3 mouse fibroblast (left) and HCT 116 colon cancer (right) cells. In lane 5 and 10, cells were treated with 5 μM of BIO for further 24 hours following transfection of the ΔD CD1 mutant.
(§2) Immunoblotting Analysis. […] SDS-PAGE was described previously (Tetsu and McCormick, 2003).
To determine the contribution of ERK/MAPK to the stability of cyclin D1 in cancer cells, MAPK activity was inhibited with the MEK inhibitor U0126 (Favata et al., 1998. J Bio Chem. 273, 18623-32; Davies et al., 2000. Biochem J. 351, 95-105). Exponentially growing HCT 116 colon cancer cells were treated with U0126 for 30 minutes (FIG. 11, Panels A-C).
In contrast, no effect on phosphorylation status and stability of cyclin D1 protein through inhibition of GSK3α/β ([…], Panels D-F) were detected. […] Cycling HCT 116 colon cancer cells were treated with BIO for 24 hours (FIG. 11, Panels D-F). A phosphorylation specific antibody to GSK3α and β was used to measure their endogenous activities because phosphorylations of GSK3α at Tyr279 and GSK3β at Tyr216 are intramolecular autophosphorylation events in the cells. Thus, phosphorylation status reflects their kinase activities (Cole et al., 2004. Biochem J. 377, 249-55).

[2] = tested on: cyclin D1 protein (Thr286 phosphorylation); assay: Western blot of cyclin D1 and p-Thr286 cyclin D1 in HA-CD1 SW480 cells treated with kinase inhibitors; conditions: HA-WT CD1 SW480 cells; 24 hours of treatment
Experimental: Immunoblot analysis was performed. […] Asterisks indicate endogenous cyclin D1 expression. Panel B: Western blot analysis with fractionated nuclear proteins. […] Cell-cycle distribution was shown as bar graphs. Nuclear proteins were fractionated at indicated time points. […] Levels of total and phosphorylated cyclin D1 were determined.
as §2
To identify the kinase responsible for cyclin D1 Thr286 phosphorylation, small molecule inhibitors of GSK3β, CDK4, and MEK were used to determine whether they were able to alter the phosphorylation and stability of ectopically expressed WT cyclin D1 protein in cultured cells (FIG. 5, Panels C and D). Ectopically expressed WT cyclin D1 protein was used to assess the stability of cyclin D1 protein. The endogenous expression was not assessed because transcription of cyclin D1 is regulated by the Ras/MAPK signaling. Therefore, endogenous expression of cyclin D1 is unable to be detected following inhibition of MAPK activities through the MEK/MAPK inhibitors or serum starvation (Tetsu et al., 2003. Cancer Cell. 3, 233-45).

[3] = tested on: HCT 116 colon cancer cells; assay: Flow-cytometric cell cycle analysis, HCT 116 cells; conditions: BIO 24 hours
Experimental: Cell cycle analysis was carried out as described previously (Tetsu et al. (1999) Nature 398: 422-6; Tetsu et al. (2003) Cancer Cell 3: 233-45.

GSK3α/β = assay: Phosphorylation-specific blot for GSK3α/β, HCT 116 cells; conditions: BIO 24 hours
Experimental: as §1, with “Panel G: Western blot analysis following transfection of various forms of HA-tagged cyclin D1 expression vectors in both NIH 3T3 mouse fibroblast (left) and HCT 116 colon cancer (right) cells. In lane 5 and 10, cells were treated with 5 μM of BIO for further 24 hours following transfection of the ΔD CD1 mutant.” left out
In contrast, no effect on phosphorylation status and stability of cyclin D1 protein through inhibition of GSK3α/β (FIG. 14, Panels D-F) were detected. […]

[4] = tested on: cyclin D1 Thr286 phosphorylation; assay: Thr286 phosphorylation of transfected ΔD cyclin D1 after BIO, HCT 116 cells; conditions: 5 μM BIO 24 hours after transfection
From the text: FIG. 9 illustrates that MAPK directly binds to cyclin D1 through the MAPK docking site (D-domain) within cyclin D1 and phosphorylates it specifically at Thr286. Panel A: p42 ERK2-associated GST-cyclin D1 (CD1) in vitro kinase assays (upper panels). Purified ERK2 phosphorylates cyclin D1 in vitro. Immuno-blotting (IB) analyses stained with a GST antibody (lower panels) were provided as a reference to show loading conditions of various forms of GST-CD1 fusion proteins. (A) GST alone (lane 1), GST-human (h) CD1 amino acids (A.A.) from 165 to 295 (165-295, lane 2), GST-human (h) or mouse (m) CD1 A.A. from 255 to 295 (255-295, lane 3 and 4) were used. Panel B: Western blot analysis following transfection of various forms of HA-tagged cyclin D1 expression vectors in both NIH 3T3 mouse fibroblast (left) and HCT 116 colon cancer (right) cells. In lane 5 and 10, Cells were treated with 5 μM of a highly specific GSK3β inhibitor BIO for further 24 hours following transfcetion of the ΔD CD1 mutant.
FIG. 11 illustrates that ERK/MAPK is identified as the major kinase that is responsible for the stability of cyclin D1 protein. […] Cyclin D1 was immunoprecipitated and then analyzed with SDS-PAGE. […] Levels of metabolically labeled-cyclin D1 were estimated by quantitative scanning using the Quantity One (Bio-Rad) software and blotted on the graph to determine the half-life of cyclin D1. […]

## O=C1Nc2cc(Br)ccc2/C1=C1/Nc2ccccc2/C1=N\O [BIO]
[1]
  expression of total cyclin D1 and its phosphorylated protein: no significant difference
[2]
  total cyclin D1 expression and its phosphorylated protein: no significant difference
[3]
  cell cycle profile: without affecting
GSK3α/β
  phosphorylated forms of GSK3α/β: disappeared
[4]
  phosphorylation status of cyclin D1 at Thr286 (ΔD mutant): did not show any significant effect; also recorded: minimal effect
